Structures can show the parent of a compound that is named as a salt.
How the values were obtained:
Format in all cases: in vivo
[1] = tested on: pancreatic ductal adenocarcinoma #03; test: antitumor activity in mice against pancreatic ductal adenocarcinoma #03 (Panc 03)
Description: (§1) Representative examples of the invention were tested for antitumor activity in mice according to the following procedure:
(§2) The animals were pooled, implanted subcutaneously with 30 to 60 mg tumor fragments by 12-gauge trocar, and again pooled before unselective distribution to the various treatment and control groups. For early-stage treatment, chemotherapy was started within 1 to 5 days after tumor implantation while the number of cells was relatively small (10^7 to 10^8 cells). For advanced-stage treatment, chemotherapy was delayed until the tumor became relatively large (200 to 300 mg in size). A 300-mg tumor contains approximately 3×10^8 total cells. […] Tumors were measured with a caliper weekly (or twice weekly for the more rapidly growing tumors). Mice were sacrificed when their tumors reached 1500 mg (i.e., before they can cause the animal discomfort). Tumor weights were estimated from two-dimensional measurements.
(§3) The treatment and control groups were measured when the control group tumors reached approximately 700 to 1200 mg in size (Median of Group). The median tumor weight of each group was determined (including zeros). […] A T/C value <10% is considered to indicate highly significant antitumor activity.
(§4) The results are shown in Table I for pancreatic ductal adenocarcinoma #03 and in Table 2 for colon adenocarcinoma #38.

colon adenocarcinoma #38 = test: antitumor activity in mice against colon adenocarcinoma #38
Description: as §1, §2, §3, §4

[2] = tested on: P388/adriamycin resistant leukemia; test: P388/adriamycin resistant leukemia, cells implanted i.v.
[3] = Table 1, average body weight 25 g, total doses as in E1
[4] = Table 2, i.v., total dose mg/kg by Example: 2:600, 5:960, 6:132, 7:840, 16(a):1000, 18(e):180
[5] = Table 2, i.v., total dose mg/kg by Example: 6:82, 16(a):690, 18(e):120
[6] = Table 2, total dose 327 mg/kg, i.v. days 3-6 and p.o. days 7-10
[7] = Table 2, total dose 529 mg/kg, i.v. days 3-6 and p.o. days 7-10
[8] = Table 2, total dose 852 mg/kg, i.v. days 3-6 and p.o. days 7-10
[9] = 10^5 cells, 150 mg/kg total, i.v. 3 hour infusion days 1, 4
[10] = 10^5 cells, 300 mg/kg total, i.v. 3 hour infusion days 1, 4
[11] = 10^5 cells, 450 mg/kg total, i.v. 3 hour infusion days 1, 4
[12] = Table 2, i.p., total dose mg/kg by Example: 10:340, 11:518
[13] = Table 2, p.o., total dose mg/kg by Example: 10:460, 11:885
[14] = Table 2, p.o., total dose mg/kg by Example: 10:740, 11:1709
[15] = 10^6 cells, 76 mg/kg total, i.v. […] infusion day 1
[16] = 10^6 cells, 123 mg/kg total, i.v. […] infusion day 1
[17] = 10^6 cells, 198 mg/kg total, i.v. […] infusion day 1
[18] = 10^6 cells, 320 mg/kg total, i.v. […] infusion day 1

CCN(CC)CCNc1ccc(CNC(=O)C(F)(F)F)c2sc3ccccc3c(=O)c12 [16(a), N-[[1-[[2-(Diethylamino)ethyl]amino]-9-oxothioxanthen-4-yl]methyl]-trifluoroacetamide]
T/C [1]: 21%
Weight Loss [1, 3]: +0.8 g
Drug Deaths ([1]; Table 1, total doses as in E1): 0
Drug Deaths (colon adenocarcinoma #38; [4]): 0
Drug Deaths (colon adenocarcinoma #38; [5]): 0
Weight Loss (colon adenocarcinoma #38; [5]): 1.5 g
Weight Loss (colon adenocarcinoma #38; mouse, in vivo, iv): 1.2 g

CCN(CC)CCNc1ccc(CN(CC)S(C)(=O)=O)c2sc3ccccc3c(=O)c12 [Example 25, N-[[1-[[2-(Diethylamino)ethyl]amino]-9-oxothioxanthen-4-yl]methyl]-N-ethyl-methanesulfonamide]
T/C [1]: 0%
Weight Loss [1, 3]: 4.6 g
Drug Deaths ([1]; Table 1, total doses as in E1): 0
response vs control in vivo at 327 mg/kg (colon adenocarcinoma #38; Mus musculus, read-out: T/C): 0%
response vs control in vivo at 529 mg/kg (colon adenocarcinoma #38; Mus musculus, read-out: T/C): 0%
response vs control in vivo at 852 mg/kg (colon adenocarcinoma #38; Mus musculus, read-out: T/C): 0%
Drug Deaths (colon adenocarcinoma #38; [6]): 0
Weight Loss (colon adenocarcinoma #38; [6]): 0.8 g
Drug Deaths (colon adenocarcinoma #38; [7]): 0
Weight Loss (colon adenocarcinoma #38; [7]): 0.6 g
Drug Deaths (colon adenocarcinoma #38; [8]): 4/5
Weight Loss (colon adenocarcinoma #38; [8]): 4.8 g

CCN(CC)CCNc1ccc(C(N)=O)c2sc3ccccc3c(=O)c12 [Example 7, 1-[[2'-(Diethylamino)ethyl]amino]-9-oxothioxanthene-4-carboxamide]
Weight Loss [1, 3]: 3.2 g
Drug Deaths ([1]; Table 1, total doses as in E1): 1/5
Drug Deaths (colon adenocarcinoma #38; [4]): 0
Weight Loss (colon adenocarcinoma #38; mouse, in vivo, iv): 0.6 g

CCN(C=O)Cc1ccc(NCCN(CC)CC)c2c(=O)c3ccccc3sc12 [Example 13, N-[[1-[[2-(Diethylamino)ethyl]amino]-9-oxothioxanthen-4-yl]methyl]-N-ethylformamide]
T/C [1]: 0%
Weight Loss [1, 3]: 2.4 g
Drug Deaths ([1]; Table 1, total doses as in E1): 0
Drug Deaths [2, 9]: 0/8
Wt. Loss at Nadir [2, 9]: -1.75 g/mouse
Drug Deaths [2, 10]: 0/7
Wt. Loss at Nadir [2, 10]: -1.75 g/mouse
Drug Deaths [2, 11]: 2/7
Wt. Loss at Nadir [2, 11]: -3.0 g/mouse
% ILS (percentage increase in lifespan) ([2]; iv, 150 mg/kg, 3 h): 8%
Log10 Tumor cell kill ([2]; iv, 150 mg/kg, 3 h): 0.5
Tumor Cell ([2]; iv, 300 mg/kg): 0/7
% ILS (percentage increase in lifespan) ([2]; iv, 300 mg/kg, 3 h): 15%
Log10 Tumor cell kill ([2]; iv, 300 mg/kg, 3 h): 1.0
Tumor Cell ([2]; iv, 450 mg/kg): 0/7
% ILS (percentage increase in lifespan) ([2]; iv, 450 mg/kg, 3 h): 38%
Log10 Tumor cell kill ([2]; iv, 450 mg/kg, 3 h): 2.5

CN(C)CCNc1ccc(CN)c2sc3ccccc3c(=O)c12 [18(e), 4-(Aminomethyl)-l-[[2-dimethylamino)ethyl]amino]-9-oxothioxanthen-9-one dihydrochloride·1/2 hydrate]
Weight Loss [1, 3]: 1.0 g
Drug Deaths ([1]; Table 1, total doses as in E1): 0
Drug Deaths (colon adenocarcinoma #38; [4]): 4/5
Drug Deaths (colon adenocarcinoma #38; [5]): 0
Weight Loss (colon adenocarcinoma #38; [5]): 1.0 g
Weight Loss (colon adenocarcinoma #38; mouse, in vivo, iv): 2.2 g

CCN(CC)CCNc1ccc(CNC=O)c2sc3ccccc3c(=O)c12 [Example 2, N-[[1-[[2-(Diethylamino)ethyl]amino]-9-oxothioxanthen-4-yl]methyl]formamide]
T/C [1]: 0%
Weight Loss [1, 3]: 2.0 g
Drug Deaths ([1]; Table 1, total doses as in E1): 0
Drug Deaths (colon adenocarcinoma #38; [4]): 0
T/C (colon adenocarcinoma #38; iv): 0%
Weight Loss (colon adenocarcinoma #38; mouse, in vivo, iv): 2.8 g

CCN(CC)CCNc1ccc(CNC(=O)c2ccccc2)c2sc3ccccc3c(=O)c12 [Example 11, N-[[1-[[2-(Diethylamino)ethyl]amino]-9-oxothioxanthen-4-yl]methyl]benzamide]
T/C [1]: 0%
Weight Loss [1, 3]: 0.8 g
Drug Deaths ([1]; Table 1, total doses as in E1): 0
Drug Deaths (colon adenocarcinoma #38; [12]): 0
Weight Loss (colon adenocarcinoma #38; [12]): 0.8 g
Drug Deaths (colon adenocarcinoma #38; [13]): 0
Weight Loss (colon adenocarcinoma #38; [13]): 0.8 g
Drug Deaths (colon adenocarcinoma #38; [14]): 0
Weight Loss (colon adenocarcinoma #38; [14]): 2.0 g
T/C (colon adenocarcinoma #38; ip): 39%
T/C (colon adenocarcinoma #38; po): 0%

CCN(CC)CCNc1ccc(CNS(=O)(=O)c2ccc(Cl)c(Cl)c2)c2sc3ccccc3c(=O)c12 [Example 26, N-[[1-[[2-(Diethylamino)ethyl]amino]-9-oxothioxanthen-4-yl]methyl]-3,4-dichlorobenzenesulfonamide methanesulfonate·1/2 hydrate]
T/C [1]: 13%
Drug Deaths ([1]; Table 1, total doses as in E1): 0
Weight Loss ([1]; mouse, in vivo): 2.2 g

CCCN(Cc1ccc(NCCN(CC)CC)c2c(=O)c3ccccc3sc12)S(C)(=O)=O [Example 28, N-[[1-[[2-(Diethylamino)ethyl]amino]-9-oxothioxanthen-4-yl]methyl]-N-propyl-methanesulfonamide]
T/C [1]: 0%
Weight Loss [1, 3]: 2.8 g
Drug Deaths ([1]; Table 1, total doses as in E1): 0

CCN(CC)CCNc1ccc(CN=CN(C)C)c2sc3ccccc3c(=O)c12 [Example 15, 1-[[2-(Diethylamino)]ethyl]amino]-4-(dimethylaminomethylene-aminomethyl)-thioxanthen-9-one trihydrochloride]
T/C [1]: 0%
Drug Deaths ([1]; Table 1, total doses as in E1): 0
Weight Loss ([1]; mouse, in vivo): 2.0 g

CCN(CC)CCNc1ccc(CNS(C)(=O)=O)c2sc3ccc(O)cc3c(=O)c12 [Example 37, N-[[1-(2-Diethylamino)ethyl]amino]-7-hydroxy-9-oxothioxanthen-4-yl]methyl]methanesulfonamide·3/4 hydrate]
T/C [1]: 7%
Drug Deaths ([1]; Table 1, total doses as in E1): 0
Weight Loss ([1]; mouse, in vivo): 0 g

CCN(CC)CCNc1ccc(CNC(=O)OC)c2sc3ccccc3c(=O)c12 [Example 34, Methyl N-[[1-[[2-(diethylamino)ethyl]amino]-9-oxothioxanthen-4-yl]methyl]carbamate]
Weight Loss [1, 3]: 3.6 g
Drug Deaths ([1]; Table 1, total doses as in E1): 0
Drug Deaths [2, 15]: 0/5
Wt. Loss at Nadir [2, 15]: -0.4 g/mouse
Drug Deaths [2, 16]: 0/5
Wt. Loss at Nadir [2, 16]: -1.2 g/mouse
Drug Deaths [2, 17]: 0/5
Wt. Loss at Nadir [2, 17]: -1.2 g/mouse
% ILS (percentage increase in lifespan) [2, 18]: toxic
Drug Deaths [2, 18]: 5/5
Log10 Tumor cell kill [2, 18]: LD100
Wt. Loss at Nadir [2, 18]: -3.6 g/mouse
% ILS (percentage increase in lifespan) ([2]; iv, 76 mg/kg): 0%
Log10 Tumor cell kill ([2]; iv, 76 mg/kg): 0
Tumor Cell ([2]; iv, 76 mg/kg): 0/5
% ILS (percentage increase in lifespan) ([2]; iv, 123 mg/kg): 8.3%
Log10 Tumor cell kill ([2]; iv, 123 mg/kg): 0.7
Tumor Cell ([2]; iv, 123 mg/kg): 0/5
% ILS (percentage increase in lifespan) ([2]; iv, 198 mg/kg): 41.7%
Log10 Tumor cell kill ([2]; iv, 198 mg/kg): 3.3
Tumor Cell ([2]; iv, 198 mg/kg): 0/5
Tumor Cell ([2]; iv, 320 mg/kg): 0/5

CN(C)CCCNc1ccc(CNS(C)(=O)=O)c2sc3ccccc3c(=O)c12 [21(c), N-[[1-[[3-(Dimethylamino)propyl]amino]-9-oxothioxanthen-4-yl]methyl]methanesulfonamide methanesulfonate·1/2 hydrate]
T/C [1]: 0%
Drug Deaths ([1]; Table 1, total doses as in E1): 0
Weight Loss ([1]; mouse, in vivo): 4.5 g

CN(C)CCNc1ccc(CNS(C)(=O)=O)c2sc3ccccc3c(=O)c12.CS(=O)(=O)O [18(f), N-[[1-[[2-(Dimethylamino)ethyl]amino]-9-oxothioxanthen-4-yl]methyl]methanesulfonamide methanesulfonate]
Weight Loss [1, 3]: 5.2 g
Drug Deaths ([1]; Table 1, total doses as in E1): 2/5

CCN(CC)CCNc1ccc(CN)c2sc3ccccc3c(=O)c12 [Example 4, 4-(Aminomethyl)-1-[[2-(diethylamino)ethyl]amino]-thioxanthen-9-one]
T/C [1]: 0%
Weight Loss [1, 3]: 0.4 g
Drug Deaths ([1]; Table 1, total doses as in E1): 0

CCN(CC)CCNc1ccc(CNS(C)(=O)=O)c2sc3ccc(Br)cc3c(=O)c12 [Example 33, N-[[1-[[2-(Diethylamino)ethyl]amino]-7-bromo-9-oxothioxanthen-4-yl]methyl]methanesulfonamide]
T/C [1]: 28%
Weight Loss [1, 3]: 2.0 g
Drug Deaths ([1]; Table 1, total doses as in E1): 0

Reference: patent US5665760A, “Lyophilized thioxanthenone antitumor agents” (priority 1995, dated 1997)
